Reference: the supplement of paper PMC10307832

Key:
Test in all cases: relative viability (nuclei count vs DMSO), 5 days (fraction); higher = more cells survive
201T = system: 201T
Method in brief: (§1)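 Relative viability equals treated-well nuclei counts divided by vehicle-well nuclei counts. Counts came from 4× images of lung cancer cell lines grown in 1536-well plates for 5 days after pin-tool dosing on the day after seeding. Dosing used one drug alone or a fixed anchor-drug dose plus five library-drug doses (not always all listed) in √10 steps, and values are medians of duplicate plates.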

CAL-12T = system: CAL-12T
Method in brief: as §1

COR-L23 = system: COR-L23
Method in brief: as §1

ChaGo-K-1 = system: ChaGo-K-1
Method in brief: as §1

HOP-62 = system: HOP-62
Method in brief: as §1

LC-2-ad = system: LC-2-ad
Method in brief: as §1

NCI-H1355 = system: NCI-H1355
Method in brief: as §1

NCI-H1395 = system: NCI-H1395
Method in brief: as §1

NCI-H1651 = system: NCI-H1651
Method in brief: as §1

NCI-H1666 = system: NCI-H1666
Method in brief: as §1

NCI-H1734 = system: NCI-H1734
Method in brief: as §1

NCI-H1944 = system: NCI-H1944
Method in brief: as §1

NCI-H1993 = system: NCI-H1993
Method in brief: as §1

NCI-H2085 = system: NCI-H2085
Method in brief: as §1

NCI-H2170 = system: NCI-H2170
Method in brief: as §1

NCI-H2228 = system: NCI-H2228
Method in brief: as §1

NCI-H2342 = system: NCI-H2342
Method in brief: as §1

NCI-H322M = system: NCI-H322M
Method in brief: as §1

NCI-H520 = system: NCI-H520
Method in brief: as §1

NCI-H661 = system: NCI-H661
Method in brief: as §1

NCI-H838 = system: NCI-H838
Method in brief: as §1

RERF-LC-KJ = system: RERF-LC-KJ
Method in brief: as §1

With COCC1(CO)C(=O)C2CCN1CC2 (stereo not given) [PRIMA-1MET] + O=C(c1cc(Cc2n[nH]c(=O)c3ccccc23)ccc1F)N1CCN(C(=O)C2CC2)CC1 [Olaparib] (partner 8 µM) as the molecule, how does the relative viability (201T; first compound 0.2 µM) read?
The relative viability was 0.947.

And the relative viability (201T; first compound 0.6325 µM)?
The relative viability was 0.829.

What about the relative viability (201T; first compound 2 µM) of the same molecule?
The relative viability was 0.808.

And the relative viability (201T; first compound 6.325 µM)?
Its relative viability is 0.908.

And the relative viability (201T; first compound 20 µM)?
The relative viability was 0.839.

What about the relative viability (CAL-12T; first compound 0.2 µM) of the same molecule?
Its relative viability is 0.806.

What about the relative viability (CAL-12T; first compound 0.6325 µM) of the same molecule?
The relative viability was 0.747.

What about the relative viability (CAL-12T; first compound 2 µM) of the same molecule?
The relative viability was 0.639.

What about the relative viability (CAL-12T; first compound 6.325 µM) of the same molecule?
Its relative viability is 0.445.

What about the relative viability (CAL-12T; first compound 20 µM) of the same molecule?
Its relative viability is 0.696.

What about the relative viability (COR-L23; first compound 0.2 µM) of the same molecule?
Its relative viability is 0.38.

What about the relative viability (COR-L23; first compound 0.6325 µM) of the same molecule?
Its relative viability is 0.315.

What about the relative viability (COR-L23; first compound 2 µM) of the same molecule?
Its relative viability is 0.379.

What about the relative viability (COR-L23; first compound 6.325 µM) of the same molecule?
Its relative viability is 0.315.

What about the relative viability (COR-L23; first compound 20 µM) of the same molecule?
The relative viability was 0.106.

What about the relative viability (ChaGo-K-1; first compound 0.2 µM) of the same molecule?
Its relative viability is 0.461.

What about the relative viability (ChaGo-K-1; first compound 0.6325 µM) of the same molecule?
Its relative viability is 0.407.

What about the relative viability (ChaGo-K-1; first compound 2 µM) of the same molecule?
The relative viability was 0.437.

What about the relative viability (ChaGo-K-1; first compound 6.325 µM) of the same molecule?
The relative viability was 0.426.

What about the relative viability (ChaGo-K-1; first compound 20 µM) of the same molecule?
The relative viability was 0.318.

And the relative viability (HOP-62; first compound 0.2 µM)?
The relative viability was 0.489.

What about the relative viability (HOP-62; first compound 0.6325 µM) of the same molecule?
The relative viability was 0.388.

What about the relative viability (HOP-62; first compound 2 µM) of the same molecule?
Its relative viability is 0.51.

And the relative viability (HOP-62; first compound 6.325 µM)?
The relative viability was 0.428.

What about the relative viability (HOP-62; first compound 20 µM) of the same molecule?
The relative viability was 0.0328.

What about the relative viability (LC-2-ad; first compound 0.2 µM) of the same molecule?
The relative viability was 0.751.

What about the relative viability (LC-2-ad; first compound 0.6325 µM) of the same molecule?
The relative viability was 0.673.

What about the relative viability (LC-2-ad; first compound 2 µM) of the same molecule?
The relative viability was 0.659.

What about the relative viability (LC-2-ad; first compound 6.325 µM) of the same molecule?
The relative viability was 0.68.

And the relative viability (LC-2-ad; first compound 20 µM)?
The relative viability was 0.7.

And the relative viability (NCI-H1355; first compound 0.2 µM)?
The relative viability was 0.768.

And the relative viability (NCI-H1355; first compound 0.6325 µM)?
The relative viability was 0.745.

What about the relative viability (NCI-H1355; first compound 2 µM) of the same molecule?
Its relative viability is 0.713.

And the relative viability (NCI-H1355; first compound 6.325 µM)?
Its relative viability is 0.818.

What about the relative viability (NCI-H1355; first compound 20 µM) of the same molecule?
Its relative viability is 0.707.

What about the relative viability (NCI-H1395; first compound 0.2 µM) of the same molecule?
The relative viability was 0.51.

What about the relative viability (NCI-H1395; first compound 2 µM) of the same molecule?
The relative viability was 0.476.

And the relative viability (NCI-H1395; first compound 6.325 µM)?
The relative viability was 0.432.

What about the relative viability (NCI-H1395; first compound 20 µM) of the same molecule?
The relative viability was 0.426.

What about the relative viability (NCI-H1651; first compound 0.2 µM) of the same molecule?
The relative viability was 0.226.

What about the relative viability (NCI-H1651; first compound 0.6325 µM) of the same molecule?
Its relative viability is 0.158.

What about the relative viability (NCI-H1651; first compound 2 µM) of the same molecule?
Its relative viability is 0.179.

And the relative viability (NCI-H1651; first compound 6.325 µM)?
Its relative viability is 0.202.

And the relative viability (NCI-H1651; first compound 20 µM)?
Its relative viability is 0.184.

And the relative viability (NCI-H1666; first compound 0.2 µM)?
Its relative viability is 0.773.

What about the relative viability (NCI-H1666; first compound 0.6325 µM) of the same molecule?
Its relative viability is 0.753.

And the relative viability (NCI-H1666; first compound 2 µM)?
The relative viability was 0.801.

And the relative viability (NCI-H1666; first compound 6.325 µM)?
Its relative viability is 0.735.

And the relative viability (NCI-H1666; first compound 20 µM)?
The relative viability was 0.739.

What about the relative viability (NCI-H1734; first compound 0.2 µM) of the same molecule?
Its relative viability is 0.711.

And the relative viability (NCI-H1734; first compound 0.6325 µM)?
The relative viability was 0.627.

What about the relative viability (NCI-H1734; first compound 2 µM) of the same molecule?
The relative viability was 0.581.

And the relative viability (NCI-H1734; first compound 6.325 µM)?
The relative viability was 0.631.

What about the relative viability (NCI-H1734; first compound 20 µM) of the same molecule?
Its relative viability is 0.0357.

What about the relative viability (NCI-H1944; first compound 0.2 µM) of the same molecule?
The relative viability was 0.479.

What about the relative viability (NCI-H1944; first compound 0.6325 µM) of the same molecule?
Its relative viability is 0.393.

And the relative viability (NCI-H1944; first compound 2 µM)?
Its relative viability is 0.415.

And the relative viability (NCI-H1944; first compound 6.325 µM)?
Its relative viability is 0.398.

And the relative viability (NCI-H1944; first compound 20 µM)?
Its relative viability is 0.457.

And the relative viability (NCI-H1993; first compound 0.2 µM)?
The relative viability was 1.21.

And the relative viability (NCI-H1993; first compound 2 µM)?
Its relative viability is 0.95.

And the relative viability (NCI-H1993; first compound 6.325 µM)?
The relative viability was 1.07.

And the relative viability (NCI-H1993; first compound 20 µM)?
The relative viability was 0.896.

And the relative viability (NCI-H2085; first compound 0.2 µM)?
The relative viability was 0.837.

What about the relative viability (NCI-H2085; first compound 0.6325 µM) of the same molecule?
The relative viability was 0.817.

What about the relative viability (NCI-H2085; first compound 2 µM) of the same molecule?
Its relative viability is 0.805.

What about the relative viability (NCI-H2085; first compound 6.325 µM) of the same molecule?
Its relative viability is 0.862.

What about the relative viability (NCI-H2085; first compound 20 µM) of the same molecule?
Its relative viability is 0.191.

What about the relative viability (NCI-H2170; first compound 0.2 µM) of the same molecule?
Its relative viability is 0.608.

And the relative viability (NCI-H2170; first compound 0.6325 µM)?
Its relative viability is 0.539.

What about the relative viability (NCI-H2170; first compound 2 µM) of the same molecule?
Its relative viability is 0.649.

What about the relative viability (NCI-H2170; first compound 6.325 µM) of the same molecule?
Its relative viability is 0.684.

What about the relative viability (NCI-H2170; first compound 20 µM) of the same molecule?
The relative viability was 0.622.

And the relative viability (NCI-H2228; first compound 0.2 µM)?
Its relative viability is 0.768.

And the relative viability (NCI-H2228; first compound 0.6325 µM)?
The relative viability was 0.522.

What about the relative viability (NCI-H2228; first compound 2 µM) of the same molecule?
Its relative viability is 0.762.

And the relative viability (NCI-H2228; first compound 6.325 µM)?
The relative viability was 0.577.

What about the relative viability (NCI-H2228; first compound 20 µM) of the same molecule?
The relative viability was 0.0565.

And the relative viability (NCI-H2342; first compound 0.2 µM)?
Its relative viability is 0.414.

What about the relative viability (NCI-H2342; first compound 0.6325 µM) of the same molecule?
The relative viability was 0.432.

What about the relative viability (NCI-H2342; first compound 6.325 µM) of the same molecule?
Its relative viability is 0.395.

What about the relative viability (NCI-H2342; first compound 20 µM) of the same molecule?
The relative viability was 0.337.

And the relative viability (NCI-H322M; first compound 0.2 µM)?
The relative viability was 0.851.

And the relative viability (NCI-H322M; first compound 0.6325 µM)?
Its relative viability is 0.668.

What about the relative viability (NCI-H322M; first compound 6.325 µM) of the same molecule?
The relative viability was 0.772.

And the relative viability (NCI-H322M; first compound 20 µM)?
The relative viability was 0.568.

What about the relative viability (NCI-H520; first compound 0.2 µM) of the same molecule?
Its relative viability is 0.371.

What about the relative viability (NCI-H520; first compound 2 µM) of the same molecule?
The relative viability was 0.38.

And the relative viability (NCI-H520; first compound 6.325 µM)?
Its relative viability is 0.318.

What about the relative viability (NCI-H520; first compound 20 µM) of the same molecule?
Its relative viability is 0.144.

And the relative viability (NCI-H661; first compound 0.2 µM)?
Its relative viability is 0.827.

And the relative viability (NCI-H661; first compound 0.6325 µM)?
The relative viability was 0.721.

What about the relative viability (NCI-H661; first compound 2 µM) of the same molecule?
Its relative viability is 0.76.

And the relative viability (NCI-H661; first compound 6.325 µM)?
The relative viability was 0.753.

And the relative viability (NCI-H661; first compound 20 µM)?
The relative viability was 0.751.

What about the relative viability (NCI-H838; first compound 0.2 µM) of the same molecule?
Its relative viability is 0.788.

What about the relative viability (NCI-H838; first compound 0.6325 µM) of the same molecule?
The relative viability was 0.76.

And the relative viability (NCI-H838; first compound 2 µM)?
The relative viability was 0.809.

What about the relative viability (NCI-H838; first compound 6.325 µM) of the same molecule?
The relative viability was 0.789.

And the relative viability (NCI-H838; first compound 20 µM)?
Its relative viability is 0.579.

And the relative viability (RERF-LC-KJ; first compound 0.2 µM)?
The relative viability was 0.969.

And the relative viability (RERF-LC-KJ; first compound 0.6325 µM)?
The relative viability was 0.988.

And the relative viability (RERF-LC-KJ; first compound 2 µM)?
The relative viability was 0.977.

And the relative viability (RERF-LC-KJ; first compound 6.325 µM)?
Its relative viability is 1.09.

What about the relative viability (RERF-LC-KJ; first compound 20 µM) of the same molecule?
Its relative viability is 0.922.
